From PMC12442099 (ACS Infectious Diseases, 2025)
≈ marks a conversion by molar mass, not a printed value.

Tests used:
[1] = test system: SOS stress response in E. coli MC4100; experiment: SOS stress reporter assay (PlexA-mNG); assay type: cell-based; details: EC80 compound concentrations (Fig. 5A); Fig. S4
Excerpt: (§1) To examine the potential link between DNA gyrase inhibition, SOS stress, and CE stress, we designed a fluorescent SOS reporter plasmid, similar to the reporter plasmids used to study CE stresses.
5 (A) SOS stress induced by different compounds at EC80 concentrations in E. coli MC4100. (B) Rcs stress of different compounds at EC80 concentrations in E. coli MC4100. (C) Rcs stress of the nonquinolone gyrase inhibitor LEI-800 in TOP10F’. (D) Rcs stress induced by mitomycin C in E. coli TOP10F’ and E. coli MC4100. Graphs show fold change in fluorescence adjusted for bacterial growth (OD600). Error bars indicate standard deviation of triplicates. Data are representative of two independent experiments with similar results.

[2] = test system: E. coli MC4100 FQR and GEPR mutants; experiment: Growth kinetics on resistant mutants; assay type: cell-based; details: EC80 concentrations, Fig. S3
Protocol: ONC of E. coli MC4100 were diluted to OD600 = 0.07 in 20 mL LB supplemented with an initial concentration of 0.4 μM lomefloxacin, 8 μM gepotidacin, or no antibiotic. After overnight incubation, part of the culture was plated onto LB agar plates with the same concentration of lomefloxacin or gepotidacin to isolate resistant colonies. OD600 of the remaining culture was determined and diluted to OD600 = 0.1 into fresh medium with a 1.5–2-fold increased concentration of lomefloxacin or gepotidacin. […] Resistant colonies were sent for Whole Genome Sequencing using short Illumina reads at MicrobesNG (Birmingham, UK). Sequencing data was analyzed using CLC Genomics Workbench (Qiagen).
Figure S3: Growth kinetics of lomefloxacin, gepotidacin, A2 and B1 on WT, FQR and GEPR mutants. E. coli
TOP10F’ cells were treated with EC80 concentrations of compounds and growth (OD600) recorded over time.
Graphs indicate % growth compared to DMSO control. Error bars indicate standard deviations of triplicates. […]

E. coli TOP10F' = experiment: Growth inhibition after 7 hours (EC80/EC50); details: for EC50 / IC80: Escherichia coli, 7 h; for EC50: read-out: EC50 TOP10F'; for IC80: read-out: EC80 TOP10F'
[3] = test system: SOS stress response in E. coli TOP10F’; experiment: SOS stress reporter assay (PlexA-mNG); assay type: cell-based; details: Fig. S4
Protocol: as §1
Figure S3: Growth kinetics of lomefloxacin, gepotidacin, A2 and B1 on WT, FQR and GEPR mutants. E. coli TOP10F’ cells were treated with EC80 concentrations of compounds and growth (OD600) recorded over time.
Graphs indicate % growth compared to DMSO control. Error bars indicate standard deviations of triplicates.
Data are representative of three independent experiments with similar results.
Fold change (RFU/OD600) MMC 1.6 μM
Fold change (RFU/OD600) Lome 18 μM
Figure S4: SOS stress induced by mitomycin C (MMC) and lomefloxacin (Lome). A) E. coli MC4100 or B) TOP10F’ cells with a plasmid expressing mNeonGreen under control of a PlexA promotor were treated with compounds and growth (OD600) and fluorescence recorded over time. Graphs indicate fold change in growth-adjusted fluorescence compared to DMSO control. Error bars indicate standard deviations of triplicates. […]

[4] = test system: Rcs stress response in E. coli MC4100 (WT, FQR, GEPR); experiment: Rcs stress reporter assay in MC4100 wildtype and resistant mutants; assay type: cell-based; details: EC80 concentrations
Excerpt: Serial passaging of E. coli MC4100 in the presence of increasing concentrations of lomefloxacin or gepotidacin yielded resistant variants of E. coli MC4100. We used MC4100 to raise resistance, because unlike the screening strain TOP10F’, this strain has a functional SOS stress response, which has been implicated in developing resistance against quinolones. Compounds also elicited a robust Rcs stress response in E. coli MC4100, allowing for this strain to be used for stress assays.
4 Rcs stress induced by EC80 concentrations of (A) lomefloxacin, (B) gepotidacin, (C) A2, and (D) B1 in wildtype (WT), fluoroquinolone resistant (FQR) or gepotidacin resistant (GEPR) bacteria. Graphs show the fold change in fluorescence adjusted for bacterial growth as determined by OD600. Error bars indicate the standard deviation of triplicate samples. Data are representative of three independent experiments with similar results. […]
(§2) For lower throughput analysis under laboratory conditions, cultures grown to OD600 of 0.3–0.4 were diluted to a final concnetration of 0.05 OD600 units/mL in black, clear-bottom 96-well plates (Greiner Bio-One B.V.). Plates were incubated in a Biotek HTX or H1 plate reader (Agilent Technologies) at 37 °C with continuous shaking. Kinetic studies were performed by measuring OD600 and fluorescence (Ex./Em. Λ: 485/528 nm) every 20 min for 10h. For end point measurements, fluorescence was measured at T = 0 and once more at T = 150 min.

E. coli MC4100 = experiment: Growth inhibition after 7 hours (EC80/EC50); details: Escherichia coli, MC4100, 7 h; for EC50: read-out: EC50 MC4100; for IC80: read-out: EC80 MC4100
[5] = test system: Rcs stress (PrprA-mNG) in E. coli TOP10F’ cells; experiment: Rcs stress reporter assay, laboratory scale 96-well end point; assay type: cell-based; details: 50 μM MRL-494, 150 min, compared to 25 μM PMBN (100%)
Protocol: as §2

[6] = test system: Rcs stress response in E. coli TOP10F’; experiment: Rcs stress kinetics reporter assay; assay type: cell-based
Protocol: (§3) Stress was measured in real-time during 10 h following compound treatment by normalizing the fluorescence intensity for growth as indicated by the optical density at 600 nm (OD600) of the culture.
(§4) 3 Bacterial stress responses of different compound classes as shown in panel (A). (B) Rcs, (C) σE, (D) Cpx, and (E) heat shock. Graphs show fold change in fluorescence normalized for OD600 at EC80 compound concentrations over the course of 10h. Fold change values were determined by comparing OD600‑normalized fluorescence of compound-treated samples to DMSO treated samples. PMBN is used as a CE stress-inducing control at 25 μg/mL, which is the concentration used as a control during the screening campaign. Chloramphenicol at 1 μg/mL is used as a non-stress-inducing antibiotic control. Error bars indicate standard deviation of the average of triplicate samples from at least two independent experiments. (F) Overview of the different stress responses based on the compound class.
as §2

[7] = test system: σE stress response in E. coli TOP10F’; experiment: σE stress kinetics reporter assay; assay type: cell-based
Protocol: as §3, §4, §2

[8] = test system: Cpx stress response in E. coli TOP10F’; experiment: Cpx stress kinetics reporter assay; assay type: cell-based
Protocol: as §3, §4, §2

[9] = test system: heat shock (groES) response in E. coli TOP10F’; experiment: Heat shock (groES) stress kinetics reporter assay; assay type: cell-based; details: PMBN 25 μg/mL
Protocol: as §3
as §4, with “Error bars indicate standard deviation of the average of triplicate samples from at least two independent experiments. (F) Overview of the different stress responses based on the compound class.” left out
as §2

E. coli BW25113 = experiment: MIC broth microdilution; assay type: cell-based; details: Escherichia coli, CAMHB, median of triplicates, read-out: MIC (μg/mL) E. coli BW25113
Protocol: (§5) The antibacterial activity of the compounds was determined by measuring their minimum inhibitory concentration (MIC) values using the broth microdilution method according to the Clinical and Laboratory Standards Institute guidelines (CLSI). Briefly, a single colony from blood agar plates was inoculated into cation-adjusted Mueller-Hinton broth (CAMHB) and grown to OD600 = 0.5. Next, 10^6 CFU/mL were added to a 2-fold serial dilution series of test compounds and incubated at 37 °C, 600 rpm overnight (18–20 h for Gram-negative strains, 20–24 h for Gram-positive strains), after which the plates were visually inspected for bacterial growth. MICs are reported as the median of triplicates.

S. aureus USA 300 = experiment: MIC broth microdilution; assay type: cell-based; details: Staphylococcus aureus, USA300; clinical isolate; CAMHB, median of triplicates; read-out: MIC (μg/mL) S. aureus USA 300
Protocol: as §5

A. baumanni 9955 = experiment: MIC broth microdilution; assay type: cell-based; details: Acinetobacter baumannii, clinical isolate, CAMHB, median of triplicates, read-out: MIC (μg/mL) A. baumanni 9955
Protocol: as §5

E. coli 25922 = experiment: MIC broth microdilution; assay type: cell-based; details: Escherichia coli, CAMHB, median of triplicates, read-out: MIC (μg/mL) E. coli 25922
Protocol: as §5

P. aeruginosa 27853 = experiment: MIC broth microdilution; assay type: cell-based; details: Pseudomonas aeruginosa, clinical isolate, CAMHB, median of triplicates, read-out: MIC (μg/mL) P. aeruginosa 27853
Protocol: as §5

K. pneumoniae 13883 = experiment: MIC broth microdilution; assay type: cell-based; details: Klebsiella pneumoniae, clinical isolate, CAMHB, median of triplicates, read-out: MIC (μg/mL) K. pneumoniae 13883
Protocol: as §5

E. coli TOP10F’ = experiment: MIC broth microdilution; assay type: cell-based; details: Escherichia coli; screening strain; CAMHB, median of triplicates; read-out: MIC (μg/mL) E. coli TOP10F’
Protocol: as §5

[10] = Figure 3F, compounds at EC80, PMBN 25 μg/mL
[11] = compounds at EC80, PMBN 25 μg/mL

CCn1cc(C(=O)O)c(=O)c2cc(F)c(N3CCNC(C)C3)c(F)c21 (stereo not shown) [lomefloxacin, Lomefloxacin, reference compound]
SOS stress induction in MC4100 [1]: high fluorescence | growth inhibition / susceptibility of GEPR mutant [2]: less susceptible | EC50 (E. coli TOP10F'): 0.031 µg/mL (≈ 0.0882 µM) | IC80 (E. coli TOP10F'): 2 µg/mL (≈ 5.69 µM) | SOS stress induction in TOP10F’ [3]: did not induce high fluorescence | Rcs stress in FQR (gyrA S83L) mutant [4]: lacked Rcs stress | EC50 (E. coli MC4100): 0.125 µg/mL (≈ 0.356 µM) | IC80 (E. coli MC4100): 0.25 µg/mL (≈ 0.712 µM)

NC(N)=NC(=O)CC(Nc1nc(N=C(N)N)nc(NC2CCC(NC(=O)Cn3nnc(-c4ccc(F)cc4)n3)CC2)n1)C1CC1 (stereo not shown) [MRL-494, reference compound]
% effect (Rcs stress-induced fluorescence) [5]: 100.4% | EC50 TOP10F' (E. coli TOP10F'; growth after 7 hours inhibited by 50% compared to DMSO control): 16 µg/mL (≈ 25.7 µM) | EC80 TOP10F' (E. coli TOP10F'; growth after 7 hours inhibited by 80% compared to DMSO control): 32 µg/mL (≈ 51.4 µM)

CO[C@@]12[C@H](COC(N)=O)C3=C(C(=O)C(C)=C(N)C3=O)N1C[C@@H]1N[C@@H]12 [mitomycin C]
SOS stress induction in MC4100 [1]: high fluorescence | Rcs stress induction in SOS-deficient TOP10F’ ([6]; fold change fluorescence/OD600): at lower levels than the gyrase inhibitors | SOS stress induction in TOP10F’ [3]: did not induce high fluorescence | Rcs stress induction in MC4100 wildtype [4]: Neither compound induced Rcs stress

polymyxin B nonapeptide [PMBN]
σE Response time [7, 10]: Fast | σE Pattern [7, 11]: Single peak | Cpx Pattern [8, 10]: Continuous | Cpx Response time [8, 10]: Slow | Rcs Response time [6, 10]: Fast | Rcs Pattern [6, 11]: Single peak | heat shock induction [9]: did not induce heat shock

O=c1ccc2ncc(=O)n3c2n1C[C@H]3CN1CCC(NCc2cc3c(cn2)OCCC3)CC1 [gepotidacin, Gepotidacin, reference compound]
time of primary σE peak ([7]; EC80 concentrations): ~150 min | σE onset time ([7]; EC80 concentrations): ~60 min | fold change in σE stress (up to) ([7]; EC80 concentrations, vs DMSO): ~3 fold | σE Pattern [7, 11]: biphasic | Cpx onset time ([8]; EC80 concentrations): 150 to 200 min | MIC (E. coli BW25113): 1 µg/mL (≈ 2.23 µM) | MIC (S. aureus USA 300): 0.25 µg/mL (≈ 0.557 µM) | MIC (A. baumanni 9955): 16 µg/mL (≈ 35.7 µM) | MIC (E. coli 25922): 2 µg/mL (≈ 4.46 µM) | MIC (P. aeruginosa 27853): 8 µg/mL (≈ 17.8 µM) | MIC (K. pneumoniae 13883): 4 µg/mL (≈ 8.92 µM) | MIC (E. coli TOP10F’): 0.06 µg/mL (≈ 0.134 µM) | Rcs onset time ([6]; EC80 concentrations): ~100 min | time of (first) Rcs peak post-treatment ([6]; EC80 concentrations): 260 to 280 min | fold increase in Rcs stress (up to) ([6]; EC80 concentrations, fluorescence/OD600 vs DMSO, 10 h): ~17 fold | Rcs Pattern [6, 11]: biphasic | growth inhibition / susceptibility of FQR (gyrA S83L) mutant [2]: remained susceptible to growth inhibition | growth inhibition / susceptibility of GEPR mutant [2]: moderate insensitivity | EC50 (E. coli TOP10F'): 0.125 µg/mL (≈ 0.279 µM) | IC80 (E. coli TOP10F'): 8 µg/mL (≈ 17.8 µM) | Rcs stress in FQR (gyrA S83L) mutant [4]: still exhibited Rcs stress | Rcs stress in GEPR mutant [4]: did not show Rcs stress | EC50 (E. coli MC4100): 1 µg/mL (≈ 2.23 µM) | IC80 (E. coli MC4100): 8 µg/mL (≈ 17.8 µM)
